Key:
[1] = in vivo; cited from earlier work
[2] = molecular target: T1, folylpolyglutamate synthase (FPGS) (Homo sapiens, UniProt Q05932); conditions: cited from earlier work
T1 sequence (Q05932 43-587): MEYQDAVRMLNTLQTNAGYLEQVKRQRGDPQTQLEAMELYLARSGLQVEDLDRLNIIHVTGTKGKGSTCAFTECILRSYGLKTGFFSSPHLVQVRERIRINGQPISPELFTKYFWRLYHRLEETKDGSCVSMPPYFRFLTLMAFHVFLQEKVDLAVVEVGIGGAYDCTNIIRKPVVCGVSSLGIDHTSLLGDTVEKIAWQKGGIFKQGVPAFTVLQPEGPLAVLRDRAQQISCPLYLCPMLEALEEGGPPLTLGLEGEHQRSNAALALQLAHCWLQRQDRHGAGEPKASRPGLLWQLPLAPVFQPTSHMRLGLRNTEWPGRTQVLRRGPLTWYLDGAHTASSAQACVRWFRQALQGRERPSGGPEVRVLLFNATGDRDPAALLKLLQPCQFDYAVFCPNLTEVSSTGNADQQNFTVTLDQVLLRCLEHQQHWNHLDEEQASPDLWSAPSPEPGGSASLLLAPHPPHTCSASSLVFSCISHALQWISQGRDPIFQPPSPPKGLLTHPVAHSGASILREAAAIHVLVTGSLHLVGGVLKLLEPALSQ

[3] = tested on: platinum-sensitive epithelial ovarian cancer; conditions: 1,100 patient Phase III, with paclitaxel and carboplatin; cited from earlier work
[4] = tested on: platinum resistant epithelial ovarian cancer; conditions: 6 mg/kg every three weeks, cited from earlier work
thymidylate synthase = molecular target: T2, thymidylate synthase (Homo sapiens, UniProt P04818); experiment: FLT PET imaging of thymidylate synthase inhibition in trial patients; conditions: in vivo
T2 construct: from tissue; host or cells: tumour tissue of trial patients, in vivo
T2 sequence (P04818 2-313 limits assumed): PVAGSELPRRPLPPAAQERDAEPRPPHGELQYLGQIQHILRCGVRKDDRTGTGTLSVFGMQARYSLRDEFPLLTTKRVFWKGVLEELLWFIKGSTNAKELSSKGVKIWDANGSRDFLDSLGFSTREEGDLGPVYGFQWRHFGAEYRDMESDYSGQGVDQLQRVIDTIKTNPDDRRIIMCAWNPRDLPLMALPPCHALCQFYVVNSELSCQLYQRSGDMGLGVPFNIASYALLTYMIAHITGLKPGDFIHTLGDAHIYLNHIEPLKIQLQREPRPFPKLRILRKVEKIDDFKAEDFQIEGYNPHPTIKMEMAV
Description: 3827-3834. 2008 (Pillai et al).

[5] = Phase I trial EudraCT3941 (Example 1): safety and toxicity; format: in vivo, human
Description: (§1) Methods: A 3+3 dose escalation design was used and two IV schedules were explored. Schedule A, weekly dosing (QW) and schedule B, once every 2 weeks dosing (Q2W). A cycle consisted of 4 weeks and treatment was stopped after 6 cycles in both schedules. An expansion cohort to evaluate clinical activity in patients with FR-α overexpressing high grade serous ovarian cancer (HGSOC) was initiated.

[6] = tested on: tumour cell proliferation; experiment: Inhibition of tumour cell proliferation in vitro; format: cell-based
[7] = Half life on administration to man; conditions: in vivo
[8] = tested on: high grade serous ovarian cancer (HGSOC); experiment: Phase I trial EudraCT3941 (Example 1): tumour response (RECIST partial responses); format: in vivo, human
Description: as §1

[9] = in vivo; cited from earlier work; remark: listed apart in the source
[10] = molecular target: thymidylate synthase (TS); conditions: read-out: Ki against isolated target thymidine synthase; cited from earlier work
[11] = tested on: reduced folate carrier (RFC); conditions: except at high concentrations; Gibbs et al., 2005; cited from earlier work
[12] = molecular target: alpha-folate receptor (FR-α) (Homo sapiens, UniProt P15328); conditions: relative to folic acid; Theti et al., 2003; cited from earlier work
Sequence of alpha-folate receptor (FR-α) (P15328 25-234, species assumed): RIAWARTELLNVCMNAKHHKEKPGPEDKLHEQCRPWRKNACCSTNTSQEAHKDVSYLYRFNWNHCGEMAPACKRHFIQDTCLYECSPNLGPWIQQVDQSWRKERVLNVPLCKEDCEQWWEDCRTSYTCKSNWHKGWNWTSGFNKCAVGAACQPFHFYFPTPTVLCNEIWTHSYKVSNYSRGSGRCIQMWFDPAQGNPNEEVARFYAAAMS

[13] = Phase I trial EudraCT3941 (Example 1): pharmacokinetics; format: in vivo, human
Description: as §1

[14] = expansion cohort, archival samples analysed

For `Nc1nc2[nH]cc(CCc3ccc(C(=O)N[C@@H](CCC(=O)O)C(=O)O)cc3)c2c(=O)[nH]1` [pemetrexed], the half-life in plasma [1] is listed as “fairly short” and the “substrate for FPGS” value [2] is listed as “excellent substrates”.
In the case of `C#CCN(Cc1cc2c(=O)[nH]c(C)nc2cc1C)c1ccc(C(=O)N[C@@H](CCc2nnn[nH]2)C(=O)O)c(F)c1` [Plevitrexed, plevitrexed], the half-life in plasma [1] is listed as “long” and the “substrate for FPGS” value [2] is listed as “not a substrate”.
For “Farletuzumab: FR-α targeted monoclonal antibody”, the “progression free survival (PFS)” value [3] is listed as “failed to improve progression free survival”.
For `Cc1nc2ccc(CN(C)c3ccc(C(=O)N[C@@H](CCC(=O)O)C(=O)O)s3)cc2c(=O)[nH]1` [Raltitrexed, raltitrexed], the half-life in plasma [1] is given as “fairly short” and the “substrate for FPGS” value [2] is given as “excellent substrates”.
In the case of “IMGN853: Antibody-drug conjugate, FR-α targeted”, the “share of patients with three or less prior lines of therapy showing this outcome” value [4] is given as 39% and the PFS ([4]; patients with three or less prior lines of therapy) is given as 6.7 months.
With `C#CCN(c1ccc(C(=O)N[C@@H](CCC(=O)N[C@H](CCC(=O)O)C(=O)O)C(=O)O)cc1)[C@H]1CCc2cc3nc(CO)[nH]c(=O)c3cc21` [BTG945, N—{N-{4-[N-((6S)-2-Hydroxymethyl-4-oxo-3,4,7,8-tetrahydro-6H-cyclo-penta[g]quinazolin-6-yl)-N-(prop-2-ynyl)amino]benzoyl}-L-γ-glutamyl}-D-glutamic acid] the “thymidylate synthase inhibition by FLT PET imaging” value (thymidylate synthase) was “Evidence of thymidylate synthase inhibition”, the “grade 3-4 diarrhea, mucositis or neutropenia” value ([5]; human, in vivo, 24 weeks) was “No grade 3-4 diarrhea, mucositis or neutropenia” and the incidence of dysgeusia ([5]; human, in vivo, 24 weeks) was 12%. The incidence of fatigue ([5]; human, in vivo, 24 weeks) was 36%, the incidence of nausea ([5]; human, in vivo, 24 weeks) was 21% and the “cases of suspected drug-related drop in Dlco” value ([5]; in vivo) was “No cases”. For the same compound, the “conventional toxicities of cytotoxic chemotherapy (myelotoxicity, nephrotoxicity, neurotoxicity)” value ([5]; in vivo) was “not observed”, the “dose limiting effects other than BOOP” value ([5]; in vivo) was “not seen” and the “occurrence of treatment limiting BOOP” value ([5]; in vivo) was “without occurrence”. The “side effects associated with α-folate receptor antibody conjugates (diarrhoea, blurred vision, nausea)” value ([5]; in vivo) was “not observed”, the “side effects normally associated with thymidine synthase inhibitors (neutropenia, diarrhoea, hair loss)” value ([5]; in vivo) was “not observed” and the dose limiting toxicity ([5]; schedule A, weekly IV dosing (QW), 1-6 mg/m^2) was “G3 cellulitis”. The dose limiting toxicity ([5]; schedule B, IV once every 2 weeks (Q2W), 2-12 mg/m^2) was “no dose limiting toxicity”, the “inhibition of tumour cell proliferation in vitro” value [6] was “concentration and time-dependent inhibition” and the “half life levels on administration to man” value [7] was “unusually long”. For the same compound, the “patients with HGSOC with partial responses (PRs)” value ([8]; dose escalation cohort) was 5 patients, the “patients with PRs” value ([8]; expansion cohort, HGSOC, 12 mg/m^2 Q2W) was 5/11 and the “AFR+ve patients with PR” value [8, 14] was 4/4. The “AFR−ve patients who did not have a PR” value [8, 14] was 4/4, the “dose at which toxicity occurred (incidence of BOOP)” value [9] was 45 mg/m^2 and the “substrate for FPGS” value [2] was “not a substrate”. The Ki [10] was 1.2 nM, the “affinity for reduced folate carrier (RFC)” value [11] was “negligible affinity” and the “affinity for α-FR as % of folic acid (FA)” value [12] was 70%. For the same compound, the “period for which concentrations above 0.5 μM were achieved” value ([13]; doses above 6 mg/m^2) was 72 h, the “period for which concentrations between 0.05-1 μM were achieved” value ([13]; doses of 4 mg/m^2 and above) was 48 h and the AUC ([13]; human, in vivo, iv, 12 mg/m2) was 85200 ng·h/mL. For the same compound, the Cmax ([13]; human, in vivo, iv, 12 mg/m2) was 4950 ng/mL and the half-life ([13]; human, in vivo, iv, 12 mg/m2) was 1560 min.

From US12128045B2, “Platinum-resistant cancer treatment” (BTG International Limited, priority 2017, dated 2024)
